Source: patent US9593149B2, “Amylin and calcitonin receptor agonist” (Novo Nordisk A/S, priority 2014, dated 2017)
Peptide text beside a SMILES is read from it. * marks the point of attachment. C18 diacid = O=C(O)CCCCCCCCCCCCCCCCC(=O)*

Experiments:
Assay (X) pK, T½ in rat = type: in vivo, Sprague Dawley rats
Protocol: Assay (X)—pK—Determination of T½ in Rat
Pharmacokinetic (PK) studies rats were conducted in order to determine the T½ of mimylin peptide after i.v. and s.c. administration.
T½ values of the mimylin derivates of the invention is determined by pharmacokinetic studies in Sprague Dawley male rats, from Taconic Europe and the principles of laboratory animal care are followed.
An acclimatisation period of approximately 7 days was allowed before the animals entered the study. At start of the acclimatisation period the rats were in the weight range of 250-400 g.
The studies were conducted in an animal room which was illuminated to give a cycle of approximately 12 hours light and 12 hours darkness. The animals were group housed and had food and water ad lib. The animals were weighed on the days of dosing.
In the present studies the test substances were administered subcutaneously or intravenously in approximately 20 nmol/kg dose. The animals received a single subcutaneous injection to the neck for subtaneous administration or directly into the tail vein for intravenous administration. Each test substance was given to typically three but in some cases two or four animals.
A full plasma concentration-time profile, employing 8-10 sampling points, was obtained from each animal. In example blood samples were collected according to the following schedule: After subcutaneous or intravenous administration:
At each sampling time, 0.08 to 0.10 ml of blood was drawn from each animal. The blood samples were taken in the sublingual vein via venous puncture and the use of a capillary tube.
The blood samples were stabilised with EDTA. Blood samples were kept on ice for max 20 min. before centrifugation. Plasma was separated using centrifugation (i.e. at 4° C., 10 min., 1500G) and was immediately transferred to Micronic tubes or PCR plates. Approximately 40 μl plasma was transferred and was stored at −20° C. until assayed. The plasma samples were assayed for the content of mimylin compound by LCMS
The plasma concentration-time profiles were analysed by a non-compartmental pharmacokinetic analysis (NCA) using Phoenix WinNonlin 6.3 (Pharsight Inc., Mountain View, Calif., USA). NCA was performed using the individual plasma concentration-time profiles from each animal. T½ is the terminal half-life=In2/λz and was determined from λz, the first order rate constant associated with the terminal (log-linear) portion of the curve, estimated by linear regression of time vs. log concentration.

[1] = Assay (XVI) T½ and subcutaneous bioavailability in LYD-pigs; type: in vivo
Protocol: Assay (XVI)—Determination of T½ and Subcutaneous Bioavailability in LYD-Pigs
Pharmacokinetic (PK) studies in Landrace Yorkshire Duroc crossbreed (LYD) pigs were conducted in order to determine a) the protraction of the mimylin derivative after i.v. administration, and b) the bioavailability of the mimylin derivative after s.c. administration The LYD pig were delivered, treated and acclimatised as described in ASSAY XV above.
In the i.v. and s.c. studies, the mimylin derivative was dissolved in 50 mM phosphate, 70 mM sodium chloride and 0.05% polysorbate 80, pH=8.0 to a concentration of approximately 100 nmol/mL. Animals were dosed with 2 nmol/kg s.c. and 5 nmol/kg i.v.
The animals were dosed subcutaneously or intravenously as follows. […]
The plasma concentration of the respective mimylin derivative was analysed using LC-MS. Individual plasma concentration-time profiles were analysed by a non-compartmental model in Phoenix WinNonlin version 6.3 (Pharsight Inc., Mountain View, Calif., USA).
The resulting terminal half-life was determined based on intravenous administration. T½ is the terminal half-life=In2/λz and was determined from λz, the first order rate constant associated with the terminal (log-linear) portion of the curve, estimated by linear regression of time vs. log concentration.
The absolute bioavailability (F) was calculated as follows: […]

PK rat iv T½ (Assay (X) pK, T½ in rat; i.v.): 12 h
PK rat sc T½ (Assay (X) pK, T½ in rat; s.c.): 13 h
Subcutaneous bioavailability (%) ([1]; LYD-pigs): 99%
LYD-pigs iv PK, t½ ([1]; i.v., harmonic mean, n = 3): 64 h
SMILES: CC(C)C[C@H](NC(=O)[C@H](C)NC(=O)[C@H](C)NC(=O)[C@@H](NC(=O)[C@H](CO)NC(=O)[C@H](CC(C)C)NC(=O)[C@H](CCC(=O)O)NC(=O)[C@H](CO)NC(=O)[C@H](C)NC(=O)[C@H](CCC(=O)O)NC(=O)CCCCCCCCCCCCCCCCC(=O)O)[C@@H](C)O)C(=O)NCC(=O)N[C@@H](CCCNC(=N)N)C(=O)N[C@@H](CC(C)C)C(=O)N[C@@H](CO)C(=O)N[C@@H](C)C(=O)N[C@@H](CCC(=O)O)C(=O)N[C@@H](CC(C)C)C(=O)N[C@@H](Cc1cnc[nH]1)C(=O)N[C@@H](CCC(=O)O)C(=O)N[C@@H](CC(C)C)C(=O)N[C@@H](C)C(=O)N[C@H](C(=O)N[C@@H](CC(C)C)C(=O)N1CCC[C@H]1C(=O)N[C@@H](CCCNC(=N)N)C(=O)N[C@H](C(=O)N[C@@H](CCC(=O)O)C(=O)N[C@H](C(=O)NCC(=O)N1CCC[C@H]1C(=O)N[C@@H](CCC(=O)O)C(=O)N[C@@H](CO)C(=O)N1CCC[C@H]1C(N)=O)[C@@H](C)O)[C@@H](C)O)[C@@H](C)O [Ex. #2, [N-terminal(C18 diacid)]mimylin] ({C18 diacid}-EASELSTAALGRLSAELHELATLPRTETGPESP-NH2)
